Columns and labels:
HCT-116 cells [1] = assay: Calcein AM viability assay, HCT-116; assay type: cell-based; conditions: Homo sapiens
Method: (§1) The potency of the subject kinase inhibitors, as measured by loss of cellular viability, was determined with the Calcein AM assay (Molecular Probes). Calcein AM is a substrate of intracellular esterases, which is cleaved only in viable cells to generate a fluorescent product that can be quantified with a fluorescent plate reader. The fluorescent signal is proportional to the number of viable cells, and thus loss of signal in response to the exposure of cells to the subject kinase inhibitors correlates with a loss of viability. This assay not only distinguishes cell cycle arrest, in which cells may still by viable, from loss of viability, and is thus well suited for the evaluation of the subject kinase inhibitors. A compound that is a potent cytotoxic agent may cause significant loss of cell viability in such an assay.
(§2) Cellular IC50's were determined in the human colorectal carcinoma cell line, HCT-116, and the normal human fibroblast, IMR90. Protein adjusted IC50's were also determined in HCT-116. Results of such viability assays are presented in Table 2 (HCT-116 (viability/protein adjusted) and IMR-90). IC50's (μM, non-protein adjusted) for the viability assay against HCT-116 cells are shown for further compounds of the invention in Table 4.
(§3) HCT-116 or IMR90 cells were recovered from sub-confluent plates by trypsinization and 1,000 or 4,000 cells, respectively, were plated in 24-well dishes and incubated overnight at 37° C., 5% CO2. HCT-116 cells were cultured in RPMI-1640, 10% FCS, and IMR90 cells were cultured in Minimum Essential Medium-alpha, 10% FCS. After overnight incubation to allow adherence, the media was aspirated from each well and replaced with media containing a test compound at a concentration from 0 to 250 nM, spanning a total of 7 doses. The plates were returned to the incubator and cultured for an additional 72 hours (3 days). […] After 72-hours incubation with the test compound, the cells were washed twice with 1×PBS, taking special care to remove all residual buffer.
(§4) A 5 μM Calcein AM solution was prepared by dissolving a 50 μg aliquot of Calcein (Molecular Probes catalog #C3100) in 50 μl DMSO. After the Calcein had completely dissolved (10 minutes at room temperature), it was diluted into 10 ml PBS. Calcein/PBS (0.5 ml) was added to each well. The plates were incubated for 75 minutes at 37° C. (protected from light) and the fluorescent signal was read on a fluorescent plate reader (excitation 485/20 and emission 530/25).

[2] = test system: normal human fibroblast, IMR90; assay: Calcein AM viability assay, IMR90; assay type: cell-based; conditions: IMR-90, Calcein AM, 72 h
Method: as §1, §2, §3, §4

HCT-116 cells [3] = assay: Clonogenic survival assay with HCT-116 cells; assay type: cell-based; conditions: Homo sapiens
Method: This assay was used to determine the concentration of a compound that results in irreversible loss of viability after a specified period of exposure. Essentially, cells are exposed to compound for a period of […], and are then transferred to compound-free growth medium. After continued incubation in the compound-free medium for a number of days, the number of colonies recovered is counted as an estimate of the number of surviving cells.
Media (RPMI-1640, 10% FCS, pen/strep) was pre-warmed to 37° C. in a water bath. Cells were incubated and grown at 37° C., 5% CO2. Cells were recovered by trypsinization from sub-confluent plates and counted using a hemocytometer. 1×10^4 cells were plated in 25 mls of media in a 15 cm tissue culture dish. […] were set up for each test compound, and were incubated overnight at 37° C. The compound was diluted into media at 7 concentrations and the media on the cells was replaced with that containing the test compound. Two plates were set up for each concentration of the compound to be tested, as well as two control plates without compound. Plates were incubated as above for […], media was removed and replaced with fresh media, and the plates were incubated an additional 7 days and washed with PBS. Colonies were stained with crystal violet solution (0.4% crystal violet, 20% ethanol) for 5 minutes, washed twice with distilled water, and counted.

[4] = test system: NCI panel of 60 cell lines; assay: cells; conditions: Homo sapiens, 60 cell, 48 h, read-out: NCI panel MG-MID (Mean-Graph Mid-point, average IC50 over panel), 48 h, SRB; IC50 <10 nM counted as 10 nM
Text: (§5) The evaluation of compounds at the National Cancer Institute in their panel of 60 cell lines provides a wealth of information regarding efficacy in a wide range of tumor types and genetic backgrounds. Included within this panel are cell lines derived from leukemia, melanoma and cancers of the lung, colon, brain, ovary, breast, prostate and kidney. Use of this panel provides a measure of the efficacy of compounds in cells with alterations in many genes that are associated with neoplastic transformation including p53 and Her2/Neu as well as those involved in metabolism and those which confer multi-drug resistance. The data generated in these cell lines with the protocol described below can be used to evaluate the activity of compounds.
(§6) Cells were grown in RPMI-1640 10% FCS and plated in 96 well micro-titer plates at densities ranging from 5,000 to 40,000 cells/well. The plates were incubated for 24 hours at 37° C., 5% CO2 for 24 hours. Media containing twice the desired final concentration of the compound (5 doses spanning 4 logs) was prepared and 100 μl was added to each well containing 100 μl media plus cells to yield the desired final concentration. The plates were then incubated for an additional 48 hours.
(§7) The effect of the compound on cellular viability was determined with the Sulforhodamine B (SRB) assay, which measures total protein. Cells were fixed with cold TCA to a final concentration of 10% and incubated at 4° C. for 60 minutes. The supernatant was discarded and the plates were washed five times with water and air-dried. SRB solution at […] in 1% acetic acid was added to each well and the plates were incubated for 10 minutes at room temperature. The plates were washed five times with 1% acetic acid and air-dried. The bound stain was solubilized with 10 mM trizma base and the absorbance was read on a plate reader at […].

[5] = test system: adriamycin resistant cell line (ADR-res); assay: NCI panel, adriamycin resistant cell line, SRB assay; assay type: cell-based; conditions: Homo sapiens, 48 h
Text: as §5, §6, §7

[6] = HCT-116, 72 h, Calcein AM, 72 h, read-out: HCT-116 IC50 Viability
[7] = 24 h exposure, read-out: HCT-116 IC50 Clonogenic 24 h
[8] = HCT-116, plus 1 mg/ml alpha acidic glycoprotein and 45 mg/ml human serum albumin, read-out: HCT-116 IC50 Protein adjusted
[9] = 48 h exposure, read-out: HCT-116 IC50 Clonogenic 48 h
[10] = HCT-116, non-protein adjusted, Table 4, read-out: HCT-116 viability IC50

SMILES	IC50 [2]	IC50 (HCT-116 cells [1]; [6])	IC50 (HCT-116 cells [3]; [7])	IC50 (HCT-116 cells [1]; [8])	IC50 (HCT-116 cells [1]; [10])	other results
O=C(Nc1cccc2c1C(=O)c1c-2n[nH]c1-c1ccc(OP(=O)(O)O)cc1)NN1CCOCC1 [J]	< 100 nM					IC50 (HCT-116 cells [1]; HCT-116, Calcein AM, 72 h, read-out: HCT-116 IC50 Viability): < 1000 nM
Cc1cc(-c2[nH]nc3c2C(=O)c2c(NC(=O)NN4CCN(C)CC4)cccc2-3)ccc1OCCN1CCCC1 [P]	< 100 nM	< 10 nM	< 100 nM			
CN1CCN(NC(=O)Nc2cccc3c2C(=O)c2c-3n[nH]c2-c2ccc(OCCN(CCO)CCO)cc2)CC1 [N]	> 100 nM	< 1000 nM		< 1000 nM		
CN1CCN(NC(=O)Nc2cccc3c2C(=O)c2c-3n[nH]c2-c2ccc(OCCN3CCC[C@H]3CO)cc2)CC1 [Compound M]	< 100 nM	< 100 nM	< 100 nM	< 1000 nM		
CCCN(CCOc1ccc(-c2[nH]nc3c2C(=O)c2c(NC(=O)NN4CCOCC4)cccc2-3)cc1)CC1CC1 [G]	< 100 nM	< 100 nM	< 100 nM	< 1000 nM		IC50 [4]: < 100 nM; IC50 (HCT-116 cells [3]; [9]): < 100 nM; IC50 [5]: < 1000 nM
CN1CCN(NC(=O)Nc2cccc3c2C(=O)c2c-3n[nH]c2-c2ccc(OCCN3CC[C@H](O)C3)cc2)CC1 [O]	< 100 nM	< 100 nM	< 10 nM	< 1000 nM		
O=C(Nc1cccc2c1C(=O)c1c-2n[nH]c1-c1ccc(OCCN2CCCC2)cc1)NN1CCOCC1 [Compound I]	< 100 nM	< 100 nM	< 100 nM	< 1000 nM		IC50 [4]: < 100 nM; IC50 (HCT-116 cells [3]; [9]): < 100 nM; IC50 [5]: < 1000 nM
CN1CCN(NC(=O)Nc2cccc3c2C(=O)c2c-3n[nH]c2-c2ccc(OCCN3CCOCC3)cc2)CC1 [Q]	< 100 nM	< 100 nM	< 100 nM	< 1000 nM		IC50 [4]: < 100 nM; IC50 (HCT-116 cells [3]; 72 h exposure, read-out: HCT-116 IC50 Clonogenic 72 h): < 100 nM; IC50 [5]: < 10000 nM
O=C(Nc1cccc2c1C(=O)c1c(-c3ccc(CN4CCCC4)cc3)n[nH]c1-2)NN1CCOCC1 [Compound A51]					< 100 nM	
Cc1cc(-c2[nH]nc3c2C(=O)c2c(NC(=O)NN4CCOCC4)cccc2-3)ccc1OCCN1CCN(C(C)C)CC1 [Compound A24]					< 10 nM	
Cc1cc(OCCN2CCCC2)ccc1-c1[nH]nc2c1C(=O)c1c(NC(=O)NN3CCN(C)CC3)cccc1-2 [L]	> 100 nM	< 100 nM		< 1000 nM		IC50 [4]: > 10000 nM; IC50 (HCT-116 cells [3]; [9]): < 100 nM; IC50 [5]: > 10000 nM
O=C(Nc1cccc2c1C(=O)c1c-2n[nH]c1-c1ccc(OCCN(CCO)CCO)cc1)NN1CCOCC1 [H]	< 100 nM	< 100 nM	< 1000 nM	< 1000 nM		IC50 [4]: < 100 nM; IC50 (HCT-116 cells [3]; [9]): < 100 nM; IC50 [5]: > 10000 nM
O=C(Nc1cccc2c1C(=O)c1c(-c3ccc(CN(CCO)CCO)cc3)n[nH]c1-2)NN1CCOCC1 [Compound B2]					< 100 nM	
O=C(Nc1cccc2c1C(=O)c1c(-c3ccc(OCC(=O)N4CCN(Cc5ccccc5)CC4)cc3)n[nH]c1-2)NN1CCOCC1 [Compound A79]					< 100 nM	
CN1CCN(NC(=O)Nc2cccc3c2C(=O)c2c-3n[nH]c2-c2ccc(O)cc2)CC1 [Compound A15]					< 100 nM	
CC(C)N1CCN(S(=O)(=O)c2ccc(-c3[nH]nc4c3C(=O)c3c(NC(=O)NN5CCOCC5)cccc3-4)cc2)CC1 [Compound A57]					< 100 nM	
O=C(Nc1cccc2c1C(=O)c1c(-c3ccc(CN4CC[C@@H](O)C4)cc3)n[nH]c1-2)NN1CCOCC1 [Compound B8]					< 100 nM	
CN(C)C(=O)COc1ccc(-c2[nH]nc3c2C(=O)c2c(NC(=O)NN4CCOCC4)cccc2-3)cc1 [Compound A34]					< 100 nM	
CN1CCN(NC(=O)Nc2cccc3c2C(=O)c2c-3n[nH]c2-c2ccc(OCCN3CCCC3)cc2)CC1 [F]	< 100 nM	< 100 nM	< 1000 nM	< 100 nM		IC50 [4]: < 100 nM; IC50 [5]: < 1000 nM
Cc1cc(OCCN2CCCN(C)CC2)ccc1-c1[nH]nc2c1C(=O)c1c(NC(=O)NN3CCN(C)CC3)cccc1-2 [Compound A9]					< 100 nM	
CCOC(=O)COc1ccc(-c2[nH]nc3c2C(=O)c2c(NC(=O)NN4CCOCC4)cccc2-3)cc1 [Compound A65]					< 100 nM	
CC(C)N1CCN(CCOc2ccc(-c3n[nH]c4c3C(=O)c3c(NC(=O)NN5CCOCC5)cccc3-4)cc2F)CC1 [Compound A22]					< 100 nM	
Cc1cc(OCCN2CCN(C(C)C)CC2)ccc1-c1[nH]nc2c1C(=O)c1c(NC(=O)NN3CCN(C)CC3)cccc1-2 [Compound A19]					< 100 nM	
CC(C)N1CCN(Cc2cc(-c3[nH]nc4c3C(=O)c3c(NC(=O)NN5CCOCC5)cccc3-4)ccc2O)CC1 [K]	> 100 nM	< 100 nM	< 1000 nM	< 1000 nM		IC50 [4]: < 100 nM; IC50 [5]: < 10000 nM
CC(C)C(N)C(=O)OCCN1CCN(NC(=O)Nc2cccc3c2C(=O)c2c-3n[nH]c2-c2ccc(OCCN3CCCC3)cc2)CC1 (stereo not shown) [Compound A33]					< 100 nM	
O=C(Nc1cccc2c1C(=O)c1c-2n[nH]c1-c1ccc(S(=O)(=O)N2CCNCC2)cc1)NN1CCOCC1 [Compound A56]					< 100 nM	
O=C(Nc1cccc2c1C(=O)c1c(-c3ccc(CN4CCC[C@H]4CO)cc3)n[nH]c1-2)NN1CCOCC1 [Compound B6]					< 100 nM	
O=C(Nc1cccc2c1C(=O)c1c-2n[nH]c1-c1ccc(OCC(=O)N2CCCC2)cc1)NN1CCOCC1 [Compound A46]					< 100 nM	
CN1CCN(NC(=O)Nc2cccc3c2C(=O)c2c-3n[nH]c2-c2ccc(OCCn3cccn3)cc2)CC1 [Compound A17]					< 100 nM	
